Measurements taken from the CheMixHub viscosity set.
± gives the uncertainty stated by the source.

Experiment: xn = mol fraction of the nth substance listed

CC(C)c1ccccc1 + CC(C)O
viscosity [mPa·s], 101 kPa
Details | x2 = 0.1013 | x2 = 0.2013 | x2 = 0.2991 | x2 = 0.4002 | x2 = 0.4993 | x2 = 0.6002 | x2 = 0.7002 | x2 = 0.8006 | x2 = 0.9002
303.15 K | 0.6764 ± 0.0055 | 0.6831 ± 0.0054 | 0.7003 ± 0.0055 | 0.7299 ± 0.0056 | 0.7766 ± 0.0058 | 0.8482 ± 0.0062 | 0.9452 ± 0.0067 | 1.104 ± 0.008 | 1.34 ± 0.0091
308.15 K | 0.6347 ± 0.0052 | 0.6402 ± 0.0051 | 0.6534 ± 0.0051 | 0.6776 ± 0.0052 | 0.7151 ± 0.0054 | 0.7732 ± 0.0057 | 0.8534 ± 0.0061 | 0.9869 ± 0.0069 | 1.183 ± 0.008
313.15 K | 0.5971 ± 0.0049 | 0.599 ± 0.0048 | 0.6093 ± 0.0048 | 0.6291 ± 0.0049 | 0.6596 ± 0.005 | 0.7081 ± 0.0053 | 0.7742 ± 0.0056 | 0.8854 ± 0.0062 | 1.046 ± 0.0071
318.15 K | 0.562 ± 0.0047 | 0.5619 ± 0.0046 | 0.5682 ± 0.0046 | 0.5853 ± 0.0046 | 0.611 ± 0.0047 | 0.6508 ± 0.0049 | 0.7041 ± 0.0052 | 0.7975 ± 0.0057 | 0.9303 ± 0.0064
323.15 K | 0.5287 ± 0.0044 | 0.5275 ± 0.0043 | 0.5322 ± 0.0043 | 0.5444 ± 0.0043 | 0.5654 ± 0.0044 | 0.5976 ± 0.0045 | 0.6419 ± 0.0048 | 0.7195 ± 0.0052 | 0.8272 ± 0.0058

CC(C)c1ccccc1 + CN(C)c1ccccc1
viscosity [mPa·s], 101 kPa
Details | x1 = 0.2 | x1 = 0.4 | x1 = 0.6 | x1 = 0.8
293.15 K | 1.228 ± 0.021 | 1.085 ± 0.019 | 0.963 ± 0.017 | 0.865 ± 0.015
313.15 K | 0.915 ± 0.016 | 0.817 ± 0.014 | 0.733 ± 0.013 | 0.666 ± 0.012

CCCCOC(C)=O + CCCCCCC
298.15 K, 101.3 kPa
Details | viscosity [mPa·s]
x1 = 0.0364 | 0.4006 ± 0.004
x1 = 0.1529 | 0.4135 ± 0.0041
x1 = 0.2504 | 0.4295 ± 0.0042
x1 = 0.3266 | 0.4449 ± 0.0043
x1 = 0.4281 | 0.4667 ± 0.0045
x1 = 0.5399 | 0.4974 ± 0.0048
x1 = 0.6531 | 0.5328 ± 0.005
x1 = 0.7531 | 0.5696 ± 0.0053
x1 = 0.8609 | 0.6155 ± 0.0057
x1 = 0.9693 | 0.6674 ± 0.0061

CC(C)c1ccccc1 + Cc1ccccc1
Details | viscosity [mPa·s]
293.15 K, 101.33 kPa, x2 = 0.2846 | 0.727 ± 0.015
293.15 K, 101.33 kPa, x2 = 0.5253 | 0.676 ± 0.01
293.15 K, 101.33 kPa, x2 = 0.6998 | 0.644 ± 0.008
293.15 K, 101.33 kPa, x2 = 0.856 | 0.612 ± 0.006
298.15 K, 101.3 kPa, x2 = 0.1169 | 0.6671 ± 0.0056
298.15 K, 101.3 kPa, x2 = 0.2596 | 0.643 ± 0.0055
298.15 K, 101.3 kPa, x2 = 0.3951 | 0.6203 ± 0.0053
298.15 K, 101.3 kPa, x2 = 0.508 | 0.6016 ± 0.0052
298.15 K, 101.3 kPa, x2 = 0.605 | 0.5854 ± 0.0051
298.15 K, 101.3 kPa, x2 = 0.7505 | 0.5615 ± 0.0049
298.15 K, 101.3 kPa, x2 = 0.8459 | 0.5459 ± 0.0048
298.15 K, 101.3 kPa, x2 = 0.9474 | 0.5288 ± 0.0047
303.15 K, 101.33 kPa, x2 = 0.2846 | 0.638 ± 0.013
303.15 K, 101.33 kPa, x2 = 0.5253 | 0.597 ± 0.009
303.15 K, 101.33 kPa, x2 = 0.6998 | 0.57 ± 0.007
303.15 K, 101.33 kPa, x2 = 0.856 | 0.544 ± 0.005
313.15 K, 101.33 kPa, x2 = 0.2846 | 0.569 ± 0.011
313.15 K, 101.33 kPa, x2 = 0.5253 | 0.533 ± 0.008
313.15 K, 101.33 kPa, x2 = 0.6998 | 0.509 ± 0.006
313.15 K, 101.33 kPa, x2 = 0.856 | 0.485 ± 0.005
323.15 K, 101.33 kPa, x2 = 0.2846 | 0.507 ± 0.01
323.15 K, 101.33 kPa, x2 = 0.5253 | 0.477 ± 0.007
323.15 K, 101.33 kPa, x2 = 0.6998 | 0.458 ± 0.006
323.15 K, 101.33 kPa, x2 = 0.856 | 0.437 ± 0.005

O=C(O)c1cc(O)c(O)c(O)c1 + CC(C)=O
viscosity [mPa·s], 101 kPa
Details | 293.15 K | 298.15 K | 303.15 K | 308.15 K | 313.15 K
x1 = 0.0034 | 0.361 ± 0.01 | 0.345 ± 0.009 | 0.332 ± 0.009 | 0.318 ± 0.009 | 0.307 ± 0.008
x1 = 0.0069 | 0.383 ± 0.01 | 0.367 ± 0.01 | 0.348 ± 0.009 | 0.337 ± 0.009 | 0.323 ± 0.009
x1 = 0.01 | 0.401 ± 0.011 | 0.388 ± 0.01 | 0.368 ± 0.01 | 0.352 ± 0.009 | 0.338 ± 0.009
x1 = 0.014 | 0.424 ± 0.011 | 0.409 ± 0.011 | 0.383 ± 0.01 | 0.368 ± 0.01 | 0.356 ± 0.01

CCCCOC(C)=O + CCCCCCCCO
viscosity [mPa·s], 101 kPa
Details | x2 = 0.085 | x2 = 0.1729 | x2 = 0.2638 | x2 = 0.3579 | x2 = 0.4554 | x2 = 0.5564 | x2 = 0.6611 | x2 = 0.7698 | x2 = 0.8827
298.15 K | 0.884 ± 0.053 | 1.13 ± 0.068 | – | 1.808 ± 0.11 | 2.27 ± 0.14 | 2.845 ± 0.17 | 3.578 ± 0.22 | 4.535 ± 0.27 | 5.81 ± 0.35
303.15 K | 0.813 ± 0.049 | 1.03 ± 0.062 | 1.298 ± 0.078 | 1.623 ± 0.098 | 2.017 ± 0.12 | 2.505 ± 0.15 | 3.119 ± 0.19 | 3.918 ± 0.24 | 4.98 ± 0.3
308.15 K | 0.748 ± 0.045 | 0.938 ± 0.057 | 1.171 ± 0.071 | 1.453 ± 0.088 | 1.789 ± 0.11 | 2.197 ± 0.13 | 2.71 ± 0.16 | 3.378 ± 0.2 | 4.252 ± 0.26
313.15 K | 0.689 ± 0.042 | 0.855 ± 0.052 | 1.059 ± 0.064 | 1.305 ± 0.079 | 1.591 ± 0.096 | 1.938 ± 0.12 | 2.372 ± 0.14 | 2.932 ± 0.18 | 3.66 ± 0.22

CC(C)c1ccccc1 + CCCO
viscosity [mPa·s], 101 kPa
Details | 298.15 K | 303.15 K | 308.15 K | 313.15 K | 318.15 K | 323.15 K
x1 = 0.013 | 1.976 ± 0.051 | – | 1.523 ± 0.039 | – | – | –
x1 = 0.0796 | 1.683 ± 0.043 | – | 1.334 ± 0.034 | – | – | –
x1 = 0.1684 | 1.406 ± 0.036 | – | 1.14 ± 0.029 | – | – | –
x1 = 0.2504 | 1.236 ± 0.032 | – | 1.011 ± 0.026 | – | – | –
x1 = 0.3462 | 1.092 ± 0.028 | – | 0.896 ± 0.023 | – | – | –
x1 = 0.4697 | 0.956 ± 0.025 | – | 0.791 ± 0.02 | – | – | –
x1 = 0.5994 | 0.854 ± 0.022 | – | 0.712 ± 0.018 | – | – | –
x1 = 0.7565 | 0.756 ± 0.02 | – | 0.657 ± 0.017 | – | – | –
x2 = 0.0996 | – | 0.6838 ± 0.0055 | 0.6412 ± 0.0052 | 0.602 ± 0.005 | 0.5678 ± 0.0047 | 0.5436 ± 0.0045
x2 = 0.1997 | – | 0.6995 ± 0.0056 | 0.6529 ± 0.0052 | 0.612 ± 0.0049 | 0.5746 ± 0.0047 | 0.54 ± 0.0044
x2 = 0.2988 | – | 0.7297 ± 0.0057 | 0.6794 ± 0.0053 | 0.6333 ± 0.005 | 0.592 ± 0.0047 | 0.5542 ± 0.0045
x2 = 0.4008 | – | 0.7751 ± 0.0059 | 0.7176 ± 0.0055 | 0.6661 ± 0.0051 | 0.6202 ± 0.0048 | 0.5777 ± 0.0045
x2 = 0.5012 | – | 0.8411 ± 0.0062 | 0.7731 ± 0.0058 | 0.7142 ± 0.0054 | 0.6612 ± 0.005 | 0.6129 ± 0.0047
x2 = 0.6002 | – | 0.9284 ± 0.0067 | 0.847 ± 0.0062 | 0.7762 ± 0.0057 | 0.7145 ± 0.0053 | 0.6596 ± 0.0049
x2 = 0.7002 | – | 1.046 ± 0.0073 | 0.9475 ± 0.0067 | 0.8652 ± 0.0062 | 0.7897 ± 0.0057 | 0.7201 ± 0.0053
x2 = 0.8 | – | 1.205 ± 0.0082 | 1.086 ± 0.0075 | 0.982 ± 0.0068 | 0.8912 ± 0.0063 | 0.81 ± 0.0057
x2 = 0.8991 | – | 1.426 ± 0.0095 | 1.275 ± 0.0085 | 1.146 ± 0.0077 | 1.033 ± 0.007 | 0.9322 ± 0.0064

CCCCOC(C)=O + O
303.15 K, 101 kPa
Details | viscosity [mPa·s]
x2 = 0.0201 | 0.64 ± 0.005
x2 = 0.04 | 0.641 ± 0.005
x2 = 0.0599 | 0.639 ± 0.005

O=c1[nH]c2nc(O)nc(O)c2[nH]1 + O
viscosity [mPa·s], 101.3 kPa
Details | 298.15 K | 303.15 K | 308.15 K | 313.15 K
x1 = 1e-06 | 0.9 ± 0.04 | 0.82 ± 0.04 | 0.73 ± 0.04 | 0.63 ± 0.04
x1 = 2e-06 | 0.9 ± 0.04 | 0.83 ± 0.04 | 0.75 ± 0.04 | 0.65 ± 0.04
x1 = 3e-06 | 0.91 ± 0.04 | 0.84 ± 0.04 | 0.76 ± 0.04 | 0.66 ± 0.04

C=COC(C)=O + CCCCO
303.15 K, 101.33 kPa
Details | viscosity [mPa·s]
x1 = 0.1008 | 1.622 ± 0.01
x1 = 0.1999 | 1.211 ± 0.008
x1 = 0.3008 | 0.944 ± 0.006
x1 = 0.3993 | 0.768 ± 0.005
x1 = 0.5055 | 0.634 ± 0.004
x1 = 0.6002 | 0.547 ± 0.004
x1 = 0.6998 | 0.482 ± 0.004
x1 = 0.7997 | 0.433 ± 0.003
x1 = 0.8749 | 0.405 ± 0.003

Oc1ccccc1Cl + CN(C)C=O
Details | viscosity [mPa·s]
303.15 K, 101 kPa, x1 = 0.3286 | 3.443 ± 1.5
